Publication PMC10993414, “Water Quality Monitoring with the Multiplexed Assay MitoOxTox for Mitochondrial Toxicity, Oxidative Stress Response, and Cytotoxicity in AREc32 Cells” (Environmental Science & Technology, 2024)
Read-outs that look alike come from different tables or passages of the source.

Experiments:
[1] = system: mitochondrial membrane potential (MMP) in AREc32 cells; conditions: for SRcytotoxicity: human
[2] = cited from earlier work
[3] = system: mitochondrial membrane potential (MMP) in AREc32 cells; test: Disruption of mitochondrial membrane potential (m-MPI red/green ratio), MitoOxTox; conditions: for SRcytotoxicity: specificity ratio of MMP effect: IC10 (ImageXpress)/EC10 (eq 4)
AREc32 cells [4] = test: Cytotoxicity with ImageXpress high-content imaging, MitoOxTox
AREc32 cells [5] = test: Cytotoxicity (cell confluency) with IncuCyte S3 live cell imaging, MitoOxTox
[6] = system: Nrf2-mediated oxidative stress response pathway (ARE) in AREc32 cells; test: cells; conditions: Arec32, 24 h, read-out: Oxidative stress response ECIR1.5 (M)
AREc32 cells [7] = conditions: for Cytotoxicity Incucyte IC10: human, 24 h
AREc32 cells [8] = system: AREc32 cells
[9] = logarithm of EC10, AREc32, 24 h exposure
[10] = 10% reduction in cell viability, AREc32, 24 h exposure
[11] = logarithm of IC10, AREc32, 24 h exposure, Corning plates
[12] = 10% reduction of MMP, AREc32, 24 h exposure

CCCCOCCO [2-Butoxyethanol]
MMP inhibition log(EC10 (M)) [1, 9]: -1.97 M
log Kow [L/L] ([2]; ref Vaes et al. 1997b): 0.83 L/L
EC10 ([3]; MMP, AREc32, 24 h): 10700 µM

Cc1cc(O)ccc1Cl [4-Chloro-3-methylphenol]
Cytotoxicity ImageExpress IC10 (AREc32 cells [4]): 161 µM
Cytotoxicity ImageExpress log(IC10 (M)) (AREc32 cells [4]): -3.79 M
Cytotoxicity Incucyte IC10 (AREc32 cells [5]): 111 µM
MMP inhibition EC10 [3]: 13.5 µM
MMP inhibition log(EC10 (M)) [3]: -4.87 M

CCCCCc1ccc(O)cc1 [4-Pentylphenol]
EC (induction ratio 1.5) [6]: > 0.000385 M
log Kow [L/L] ([2]; ref Vaes et al. 1997b): 4.24 L/L
Cytotoxicity ImageExpress IC10 (AREc32 cells [4]; [10]): 87.6 µM
Cytotoxicity ImageExpress log(IC10 (M)) (AREc32 cells [4]; [11]): -4.06 M
Cytotoxicity Incucyte IC10 (AREc32 cells [5]; [10]): 57.1 µM
MMP inhibition EC10 [3, 12]: 6.16 µM
MMP inhibition log(EC10 (M)) [3, 9]: -5.21 M
SRcytotoxicity [3]: 14.2

CCCCCC[C@H]1C(=O)O[C@H](C)[C@H](NC(=O)c2cccc(NC=O)c2O)C(=O)O[C@@H](C)[C@@H]1OC(=O)CC(C)C [Antimycin A]
EC (induction ratio 1.5) [6]: > 0.000129 M
Cytotoxicity ImageExpress IC10 (AREc32 cells [4]; [10]): 43.4 µM
Cytotoxicity ImageExpress log(IC10 (M)) (AREc32 cells [4]; [11]): -4.36 M
Cytotoxicity Incucyte IC10 (AREc32 cells [5]; [10]): 35.9 µM
MMP inhibition EC10 [3, 12]: 0.000755 µM
MMP inhibition log(EC10 (M)) [3, 9]: -9.12 M

COc1ccc2cc3[n+](cc2c1OC)CCc1cc2c(cc1-3)OCO2 [Berberine]
EC (induction ratio 1.5) [6]: > 0.000135 M
Cytotoxicity ImageExpress IC10 (AREc32 cells [4]; [10]): 72.4 µM
Cytotoxicity ImageExpress log(IC10 (M)) (AREc32 cells [4]; [11]): -4.14 M
Cytotoxicity Incucyte IC10 (AREc32 cells [5]; [10]): 63.5 µM
MMP inhibition EC10 [3, 12]: 0.0135 µM
MMP inhibition log(EC10 (M)) [3, 9]: -7.87 M
SRcytotoxicity [3]: 5365

N#CC(C#N)=NNc1cccc(Cl)c1 [Carbonyl cyanide 3-chlorophenyl-hydrazone]
EC (induction ratio 1.5) [6]: > 0.000355 M
log Kow [L/L] ([2]; experimental, ref PhysPropNCCT): 3.38 L/L
Cytotoxicity ImageExpress IC10 (AREc32 cells [4]; [10]): 2.31 µM
Cytotoxicity ImageExpress log(IC10 (M)) (AREc32 cells [4]; [11]): -5.64 M
Cytotoxicity Incucyte IC10 (AREc32 cells [5]; [10]): 1.28 µM
MMP inhibition EC10 [3, 12]: 0.247 µM
MMP inhibition log(EC10 (M)) [3, 9]: -6.61 M
SRcytotoxicity [3]: 9.4

N#CC(C#N)=NNc1ccc(OC(F)(F)F)cc1 [Carbonyl cyanide 4-(trifluoromethoxy)phenylhydrazone]
EC (induction ratio 1.5) [6]: > 6.32e-05 M
log Kow [L/L] ([2]; experimental, ref PhysPropNCCT): 3.68 L/L
Cytotoxicity ImageExpress IC10 (AREc32 cells [4]; [10]): 1.75 µM
Cytotoxicity ImageExpress log(IC10 (M)) (AREc32 cells [4]; [11]): -5.76 M
Cytotoxicity Incucyte IC10 (AREc32 cells [5]; [10]): 0.824 µM
MMP inhibition EC10 [3, 12]: 0.0768 µM
MMP inhibition log(EC10 (M)) [3, 9]: -7.11 M
SRcytotoxicity [3]: 22.8

Cc1ccc(-c2c(Cl)nc(C#N)n2S(=O)(=O)N(C)C)cc1 [Cyazofamid]
Cytotoxicity Incucyte log(IC10 (M)) (AREc32 cells [7]): no cytotoxicity
Cytotoxicity Incucyte IC10 (AREc32 cells [7]): > 54.1 µM
Cytotoxicity ImageExpress log(IC10 (M)) (AREc32 cells [8]): no cytotoxicity
Cytotoxicity ImageExpress IC10 (AREc32 cells [8]; human, 24 h): > 54.1 µM
EC (induction ratio 1.5) [6]: > 5.41e-05 M
MMP inhibition EC10 [3, 12]: 36.7 µM
MMP inhibition log(EC10 (M)) [3, 9]: -4.44 M

COc1cc2c(cc1OC)[C@@H]1C(=O)c3ccc4c(c3O[C@@H]1CO2)C=CC(C)(C)O4 [Deguelin]
SRcytotoxicity [1]: 2215
EC (induction ratio 1.5) [6]: > 4.08e-05 M
Cytotoxicity ImageExpress IC10 (AREc32 cells [4]; [10]): 28.8 µM
Cytotoxicity ImageExpress log(IC10 (M)) (AREc32 cells [4]; [11]): -4.54 M
Cytotoxicity Incucyte IC10 (AREc32 cells [5]; [10]): 17.7 µM
MMP inhibition EC10 [3, 12]: 0.013 µM
MMP inhibition log(EC10 (M)) [3, 9]: -7.89 M

CSC1=N[C@@](C)(c2ccccc2)C(=O)N1Nc1ccccc1 [Fenamidone]
Cytotoxicity Incucyte IC10 (AREc32 cells [7]): 118 µM
Cytotoxicity ImageExpress IC10 (AREc32 cells [8]; human, 24 h): 125 µM
Cytotoxicity ImageExpress log(IC10 (M)) (AREc32 cells [8]; human, 24 h): -3.90 M
SRcytotoxicity ([1]; 24 h): 9.5
EC (induction ratio 1.5) [6]: > 0.000239 M
MMP inhibition EC10 [3, 12]: 13.1 µM
MMP inhibition log(EC10 (M)) [3, 9]: -4.88 M

Cc1nn(C)c(Oc2ccccc2)c1C=NOCc1ccc(C(=O)OC(C)(C)C)cc1 [Fenpyroximate]
MMP inhibition EC10 [3, 12]: 0.00069 µM
MMP inhibition log(EC10 (M)) [3, 9]: -9.16 M

CO/N=C(/C1=NOCCO1)c1ccccc1Oc1ncnc(Oc2ccccc2Cl)c1F [Fluoxastrobin]
EC (induction ratio 1.5) [6]: > 0.000153 M
Cytotoxicity ImageExpress IC10 (AREc32 cells [4]; [10]): > 153 µM
Cytotoxicity ImageExpress log(IC10 (M)) (AREc32 cells [4]; [11]): no cytotoxicity
Cytotoxicity Incucyte IC10 (AREc32 cells [5]; [10]): 52.1 µM
MMP inhibition EC10 [3, 12]: 6.05 µM
MMP inhibition log(EC10 (M)) [3, 9]: -5.22 M

CC1(C)CNC(=NN=C(/C=C/c2ccc(C(F)(F)F)cc2)/C=C/c2ccc(C(F)(F)F)cc2)NC1 [Hydramethylnon]
EC (induction ratio 1.5) [6]: > 4.04e-05 M
Cytotoxicity ImageExpress IC10 (AREc32 cells [4]; [10]): 1.11 µM
Cytotoxicity ImageExpress log(IC10 (M)) (AREc32 cells [4]; [11]): -5.96 M
Cytotoxicity Incucyte IC10 (AREc32 cells [5]; [10]): 0.878 µM
MMP inhibition EC10 [3, 12]: 4.29 µM
MMP inhibition log(EC10 (M)) [3, 9]: -5.37 M

Cc1ccccc1C(=O)Nc1cccc(OC(C)C)c1 [Mepronil]
Cytotoxicity Incucyte IC10 (AREc32 cells [7]): 58.7 µM
Cytotoxicity ImageExpress IC10 (AREc32 cells [8]; human, 24 h): 72.9 µM
Cytotoxicity ImageExpress log(IC10 (M)) (AREc32 cells [8]; human, 24 h): -4.14 M
EC (induction ratio 1.5) [6]: > 0.000153 M
log Kow [L/L] ([2]; experimental, ref PhysPropNCCT): 3.66 L/L
MMP inhibition EC10 [3, 12]: 31.2 µM
MMP inhibition log(EC10 (M)) [3, 9]: -4.51 M

COC(=O)N(OC)c1ccccc1COc1ccn(-c2ccc(Cl)cc2)n1 [Pyraclostrobin]
SRcytotoxicity [1]: 295.0
EC (induction ratio 1.5) [6]: > 0.000103 M
log Kow [L/L] ([2]; experimental, ref PhysPropNCCT): 3.99 L/L
Cytotoxicity ImageExpress IC10 (AREc32 cells [4]; [10]): 61.4 µM
Cytotoxicity ImageExpress log(IC10 (M)) (AREc32 cells [4]; [11]): -4.21 M
Cytotoxicity Incucyte IC10 (AREc32 cells [5]; [10]): 82.4 µM
MMP inhibition EC10 [3, 12]: 0.208 µM
MMP inhibition log(EC10 (M)) [3, 9]: -6.68 M

CC(C)(C)c1ccc(CSc2cnn(C(C)(C)C)c(=O)c2Cl)cc1 [Pyridaben]
Cytotoxicity Incucyte IC10 (AREc32 cells [7]): 51.4 µM
Cytotoxicity ImageExpress log(IC10 (M)) (AREc32 cells [8]): no cytotoxicity
Cytotoxicity ImageExpress IC10 (AREc32 cells [8]; human, 24 h): > 161 µM
EC (induction ratio 1.5) [6]: > 0.000161 M
log Kow [L/L] ([2]; experimental, ref PhysPropNCCT): 6.37 L/L
MMP inhibition EC10 [3, 12]: 0.00273 µM
MMP inhibition log(EC10 (M)) [3, 9]: -8.56 M

CCOCCc1ccc(OCCN=c2[nH]cnc(CC)c2Cl)c(C)c1C [Pyrimidifen]
EC (induction ratio 1.5) [6]: > 0.000136 M
Cytotoxicity ImageExpress IC10 (AREc32 cells [4]; [10]): 56.1 µM
Cytotoxicity ImageExpress log(IC10 (M)) (AREc32 cells [4]; [11]): -4.25 M
Cytotoxicity Incucyte IC10 (AREc32 cells [5]; [10]): 55.3 µM
MMP inhibition EC10 [3, 12]: 0.00271 µM
MMP inhibition log(EC10 (M)) [3, 9]: -8.57 M
SRcytotoxicity [3]: 20693

CCc1nn(C)c(C(=O)NCc2ccc(C(C)(C)C)cc2)c1Cl [Tebufenpyrad]
SRcytotoxicity [1]: 33496
EC (induction ratio 1.5) [6]: > 0.000214 M
log Kow [L/L] ([2]; experimental, ref PhysPropNCCT): 4.61 L/L
Cytotoxicity ImageExpress IC10 (AREc32 cells [4]; [10]): 192 µM
Cytotoxicity ImageExpress log(IC10 (M)) (AREc32 cells [4]; [11]): -3.72 M
Cytotoxicity Incucyte IC10 (AREc32 cells [5]; [10]): 157 µM
MMP inhibition EC10 [3, 12]: 0.00573 µM
MMP inhibition log(EC10 (M)) [3, 9]: -8.24 M

Cc1nc(C(F)(F)F)c(C(=O)Nc2c(Br)cc(OC(F)(F)F)cc2Br)s1 [Thifluzamide]
EC (induction ratio 1.5) [6]: > 3.16e-05 M
Cytotoxicity ImageExpress IC10 (AREc32 cells [4]; [10]): 23.4 µM
Cytotoxicity ImageExpress log(IC10 (M)) (AREc32 cells [4]; [11]): -4.63 M
Cytotoxicity Incucyte IC10 (AREc32 cells [5]; [10]): 11.3 µM
MMP inhibition EC10 [3, 12]: 2.92 µM
MMP inhibition log(EC10 (M)) [3, 9]: -5.53 M
SRcytotoxicity [3]: 8.0

CON=C(C(=O)OC)c1ccccc1CON=C(C)c1cccc(C(F)(F)F)c1 [Trifloxystrobin]
Cytotoxicity Incucyte log(IC10 (M)) (AREc32 cells [7]): no cytotoxicity
Cytotoxicity Incucyte IC10 (AREc32 cells [7]): > 123 µM
Cytotoxicity ImageExpress log(IC10 (M)) (AREc32 cells [8]): no cytotoxicity
Cytotoxicity ImageExpress IC10 (AREc32 cells [8]; human, 24 h): > 123 µM
EC (induction ratio 1.5) [6]: > 0.000123 M
log Kow [L/L] ([2]; experimental, ref PhysPropNCCT): 4.50 L/L
MMP inhibition EC10 [3, 12]: 4.11 µM
MMP inhibition log(EC10 (M)) [3, 9]: -5.39 M
